Test system: Transport facilitation protein genes
Assay: DNA chip mRNA expression in yeast, transport facilitation protein genes (Table 5)
Type: cell-based, Saccharomyces cerevisiae S288C
Procedure, shortened: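 First, S288C yeast grown in YPD at 25° C. are dosed in log phase with one toxicant (growth-inhibiting, not lethal) for 2 h. Next, total RNA is extracted and poly(A) mRNA isolated and reverse-transcribed with Cy3/Cy5-dUTP. Finally, whole-genome chip fluorescence is read relative to unexposed cells.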

With `[Cl][Cd][Cl]` [(2), CdCl2] as the molecule, how does the “The level of expressed mRNA in the presence of chemical substance/The level of expressed mRNA in the absence of chemical substance” value (yeast gene YBL030C) read?
The value was 0.9.

And the “The level of expressed mRNA in the presence of chemical substance/The level of expressed mRNA in the absence of chemical substance” value (yeast gene YBL099W)?
Its value is 0.9.

What about the “The level of expressed mRNA in the presence of chemical substance/The level of expressed mRNA in the absence of chemical substance” value (yeast gene YBR052C) of the same molecule?
The value was 1.6.

And the “The level of expressed mRNA in the presence of chemical substance/The level of expressed mRNA in the absence of chemical substance” value (yeast gene YBR068C)?
The value was 1.0.

What about the “The level of expressed mRNA in the presence of chemical substance/The level of expressed mRNA in the absence of chemical substance” value (yeast gene YBR127C) of the same molecule?
The value was 0.7.

What about the “The level of expressed mRNA in the presence of chemical substance/The level of expressed mRNA in the absence of chemical substance” value (yeast gene YBR132C) of the same molecule?
Its value is 1.9.

And the “The level of expressed mRNA in the presence of chemical substance/The level of expressed mRNA in the absence of chemical substance” value (yeast gene YBR207W)?
The value was 1.7.

And the “The level of expressed mRNA in the presence of chemical substance/The level of expressed mRNA in the absence of chemical substance” value (yeast gene YBR293W)?
The value was 3.1.

And the “The level of expressed mRNA in the presence of chemical substance/The level of expressed mRNA in the absence of chemical substance” value (yeast gene YBR294W)?
The value was 14.4.

And the “The level of expressed mRNA in the presence of chemical substance/The level of expressed mRNA in the absence of chemical substance” value (yeast gene YBR295W)?
Its value is 1.5.

And the “The level of expressed mRNA in the presence of chemical substance/The level of expressed mRNA in the absence of chemical substance” value (yeast gene YBR298C)?
Its value is 1.0.

And the “The level of expressed mRNA in the presence of chemical substance/The level of expressed mRNA in the absence of chemical substance” value (yeast gene YCL025C)?
The value was 4.6.

And the “The level of expressed mRNA in the presence of chemical substance/The level of expressed mRNA in the absence of chemical substance” value (yeast gene YCL038C)?
Its value is 1.6.

And the “The level of expressed mRNA in the presence of chemical substance/The level of expressed mRNA in the absence of chemical substance” value (yeast gene YCR024C-A)?
Its value is 0.9.

What about the “The level of expressed mRNA in the presence of chemical substance/The level of expressed mRNA in the absence of chemical substance” value (yeast gene YCR037C) of the same molecule?
The value was 1.0.

What about the “The level of expressed mRNA in the presence of chemical substance/The level of expressed mRNA in the absence of chemical substance” value (yeast gene YCR098C) of the same molecule?
Its value is 3.0.

And the “The level of expressed mRNA in the presence of chemical substance/The level of expressed mRNA in the absence of chemical substance” value (yeast gene YDL128W)?
The value was 1.1.

And the “The level of expressed mRNA in the presence of chemical substance/The level of expressed mRNA in the absence of chemical substance” value (yeast gene YDL198C)?
The value was 1.0.

What about the “The level of expressed mRNA in the presence of chemical substance/The level of expressed mRNA in the absence of chemical substance” value (yeast gene YDL210W) of the same molecule?
The value was 2.2.

What about the “The level of expressed mRNA in the presence of chemical substance/The level of expressed mRNA in the absence of chemical substance” value (yeast gene YDL245C) of the same molecule?
The value was 2.4.

What about the “The level of expressed mRNA in the presence of chemical substance/The level of expressed mRNA in the absence of chemical substance” value (yeast gene YDR038C) of the same molecule?
Its value is 1.3.

And the “The level of expressed mRNA in the presence of chemical substance/The level of expressed mRNA in the absence of chemical substance” value (yeast gene YDR039C)?
Its value is 1.6.

What about the “The level of expressed mRNA in the presence of chemical substance/The level of expressed mRNA in the absence of chemical substance” value (yeast gene YDR086C) of the same molecule?
The value was 1.0.

What about the “The level of expressed mRNA in the presence of chemical substance/The level of expressed mRNA in the absence of chemical substance” value (yeast gene YDR270W) of the same molecule?
Its value is 1.5.

What about the “The level of expressed mRNA in the presence of chemical substance/The level of expressed mRNA in the absence of chemical substance” value (yeast gene YDR298C) of the same molecule?
The value was 1.2.

And the “The level of expressed mRNA in the presence of chemical substance/The level of expressed mRNA in the absence of chemical substance” value (yeast gene YDR342C)?
Its value is 1.1.

And the “The level of expressed mRNA in the presence of chemical substance/The level of expressed mRNA in the absence of chemical substance” value (yeast gene YDR343C)?
The value was 1.0.

What about the “The level of expressed mRNA in the presence of chemical substance/The level of expressed mRNA in the absence of chemical substance” value (yeast gene YDR345C) of the same molecule?
Its value is 0.9.

And the “The level of expressed mRNA in the presence of chemical substance/The level of expressed mRNA in the absence of chemical substance” value (yeast gene YDR387C)?
The value was 0.9.

And the “The level of expressed mRNA in the presence of chemical substance/The level of expressed mRNA in the absence of chemical substance” value (yeast gene YDR497C)?
Its value is 0.5.

What about the “The level of expressed mRNA in the presence of chemical substance/The level of expressed mRNA in the absence of chemical substance” value (yeast gene YEL027W) of the same molecule?
Its value is 0.6.

What about the “The level of expressed mRNA in the presence of chemical substance/The level of expressed mRNA in the absence of chemical substance” value (yeast gene YEL063C) of the same molecule?
Its value is 0.8.

What about the “The level of expressed mRNA in the presence of chemical substance/The level of expressed mRNA in the absence of chemical substance” value (yeast gene YEL065W) of the same molecule?
The value was 3.8.

And the “The level of expressed mRNA in the presence of chemical substance/The level of expressed mRNA in the absence of chemical substance” value (yeast gene YER053C)?
Its value is 1.8.

What about the “The level of expressed mRNA in the presence of chemical substance/The level of expressed mRNA in the absence of chemical substance” value (yeast gene YFL011W) of the same molecule?
Its value is 0.7.

And the “The level of expressed mRNA in the presence of chemical substance/The level of expressed mRNA in the absence of chemical substance” value (yeast gene YFL041W)?
Its value is 1.6.

And the “The level of expressed mRNA in the presence of chemical substance/The level of expressed mRNA in the absence of chemical substance” value (yeast gene YFL050C)?
The value was 1.0.

What about the “The level of expressed mRNA in the presence of chemical substance/The level of expressed mRNA in the absence of chemical substance” value (yeast gene YFL054C) of the same molecule?
The value was 1.1.

What about the “The level of expressed mRNA in the presence of chemical substance/The level of expressed mRNA in the absence of chemical substance” value (yeast gene YGL006W) of the same molecule?
The value was 1.3.

What about the “The level of expressed mRNA in the presence of chemical substance/The level of expressed mRNA in the absence of chemical substance” value (yeast gene YGL008C) of the same molecule?
The value was 0.7.

And the “The level of expressed mRNA in the presence of chemical substance/The level of expressed mRNA in the absence of chemical substance” value (yeast gene YGL104C)?
The value was 2.0.

What about the “The level of expressed mRNA in the presence of chemical substance/The level of expressed mRNA in the absence of chemical substance” value (yeast gene YGL167C) of the same molecule?
The value was 0.7.

What about the “The level of expressed mRNA in the presence of chemical substance/The level of expressed mRNA in the absence of chemical substance” value (yeast gene YGL255W) of the same molecule?
Its value is 0.9.

And the “The level of expressed mRNA in the presence of chemical substance/The level of expressed mRNA in the absence of chemical substance” value (yeast gene YGR055W)?
The value was 5.7.

And the “The level of expressed mRNA in the presence of chemical substance/The level of expressed mRNA in the absence of chemical substance” value (yeast gene YGR065C)?
Its value is 1.5.

And the “The level of expressed mRNA in the presence of chemical substance/The level of expressed mRNA in the absence of chemical substance” value (yeast gene YGR082W)?
The value was 0.9.

And the “The level of expressed mRNA in the presence of chemical substance/The level of expressed mRNA in the absence of chemical substance” value (yeast gene YGR096W)?
Its value is 1.0.

What about the “The level of expressed mRNA in the presence of chemical substance/The level of expressed mRNA in the absence of chemical substance” value (yeast gene YGR138C) of the same molecule?
The value was 1.6.

What about the “The level of expressed mRNA in the presence of chemical substance/The level of expressed mRNA in the absence of chemical substance” value (yeast gene YGR191W) of the same molecule?
The value was 0.7.

And the “The level of expressed mRNA in the presence of chemical substance/The level of expressed mRNA in the absence of chemical substance” value (yeast gene YGR197C)?
The value was 2.4.

— patent US8192962B2, “Processes for detecting toxic substances” (Daikin Industries, Ltd., priority 2001, dated 2012)
